Converted amounts (≈) assume the structure as drawn. The source made the active and inactive calls. No cut-off for these calls is given here.
Test system: Staphylococcus aureus
Test: Antibacterial activity against Staphylococcus aureus assessed as growth inhibition after 24 hrs by broth microdilution assay
Assay type: functional

| Compound | Activity | MIC [µM] |
| --- | --- | --- |
| COC(=O)/C=C/c1[nH]c2ccccc2c1O[C@@H]1O[C@H](CO)[C@@H](O)[C@H](O)[C@H]1O | inactive |  |
| COC(=O)c1ccccc1NC(=O)c1[nH]c2ccccc2c1O[C@@H]1O[C@H](CO)[C@@H](O)[C@H](O)[C@H]1O | inactive |  |
| C[C@@H]1O[C@@H](O[C@@H]2[C@@H](O)[C@H](OCCc3ccc(O)c4c3[C@]3(Nc5ccccc5C3=O)[C@@]3(Nc5ccccc5C3=O)O4)O[C@H](CO)[C@H]2OC(=O)/C=C/c2ccc(O)c(O)c2)[C@H](O)[C@H](O)[C@H]1O | inactive |  |
| COc1ccc(CCO[C@@H]2O[C@H](CO)[C@@H](OC(=O)/C=C/c3ccc(O)c(O)c3)[C@H](O[C@@H]3O[C@@H](C)[C@H](O)[C@@H](O)[C@H]3O)[C@H]2O)cc1O | inactive |  |
| COc1ccc(CCO[C@@H]2O[C@H](CO)[C@@H](OC(=O)/C=C/c3ccc(O)c(OC)c3)[C@H](O[C@@H]3O[C@@H](C)[C@H](O)[C@@H](O)[C@H]3O)[C@H]2O)cc1O | inactive |  |
| C[C@@H]1O[C@@H](O[C@@H]2[C@@H](O)[C@H](OCCc3ccc(O)c4c3[C@@]3(Nc5ccccc5C3=O)[C@]3(Nc5ccccc5C3=O)O4)O[C@H](CO)[C@H]2OC(=O)/C=C/c2ccc(O)c(O)c2)[C@H](O)[C@H](O)[C@H]1O | inactive |  |
| O=C1/C(=C2/C(=O)N([C@@H]3O[C@H](CO)[C@@H](O)[C@H](O)[C@H]3O)c3ccccc32)Nc2ccccc21 |  | 62.5 (≈ 26.5 µg/mL) |
| COc1ccc(CCO[C@@H]2O[C@H](COC(=O)/C=C/c3ccc(O)c(OC)c3)[C@@H](O)[C@H](O[C@@H]3O[C@@H](C)[C@H](O)[C@@H](O)[C@H]3O)[C@H]2O)cc1O | inactive |  |
| C[C@@H]1O[C@@H](O[C@@H]2[C@@H](O)[C@H](OCCc3ccc(O)c(O)c3)O[C@H](CO)[C@H]2OC(=O)/C=C/c2ccc(O)c(O)c2)[C@H](O)[C@H](O)[C@H]1O | inactive |  |
| C[C@@H]1O[C@@H](O[C@@H]2[C@@H](O)[C@H](OCCc3ccc(O)c(O)c3)O[C@H](CO)[C@@H]2OC(=O)/C=C/c2ccc(O)c(O)c2)[C@H](O)[C@H](O)[C@H]1O | inactive |  |
